Data: US6420570B1, “Psoralen compounds” (priority 1993, dated 2002)
Where a name gives a salt, the structure may show the parent alone.

Tested on: TA98
Assay: Ames assay, dark mutagenicity, strain TA98
Experimental: In this example the compounds of the present invention are tested for their dark mutagenicity using an Ames assay. The procedures used for the Salmonella mutagenicity test as described in detail by Maron and Ames were followed exactly. Maron, D. M. and B. N. Ames, Mutation Research 113:173 (1983). A brief description for each procedure is given here. The tester strains TA97a, TA98, TA100, TA102, TA1537 and TA1538 were obtained from Dr. Ames. TA97a, TA98, TA1537 and TA1538 are frameshift tester strains. TA100 and TA102 are base-substitution tester strains. Upon receipt each strain was cultured under a variety of conditions to confirm the genotypes specific to the strains.
The first tests done with the strains were to determine the range of spontaneous reversion for each of the strains. With each mutagenicity experiment the spontaneous reversion of the tester strains to histidine independence was measured and expressed as the number of spontaneous revertants per plate. This served as the background controls.
For all experiments, the pre-incubation procedure was used. In this procedure one vial of each tester strain was thawed and 20 μL of this culture was added to 6 mL of Oxoid Nutrient Broth #2. This solution was allowed to shake for 10 hours at 37° C. In the pre-incubation procedure, 0.1 mL of this overnight culture was added to each of the required number of sterile test tubes. To half of the tubes 0.5 mL of a 10% S-9 solution containing Aroclor 1254 induced rat liver extract (Molecular Toxicology Inc., Annapolis, MD), and MgCl2, KCl, glucose-6-phosphate, NADP, and sodium phosphate buffer (Sigma, St. Louis. Mo.) were added. To the other half of the tubes 0.5 mL of 0.2M sodium phospate buffer, pH 7.4, was used in place of the S-9 mixture (the -S9 samples) Finally 0.1 mL of the test solution containing either 0.0.1, 0.5, 1, 5, 10, 50, 100, 250, or 500 μg/mL of the test compound was added. The 0.7 mL mixture pre-incubated while shaking for 20 minutes at 37° C. After shaking, 2 mL of molten top agar supplemented with histidine and biotin were added to the 0.7 mL mixture and immediately poured onto a minimal glucose agar plate (volume of base agar was 20 ml.). The top agar was allowed 30 minutes to solidify and then the plates were inverted and incubated for 44 hours at 37° C. After incubation the number of revertant colonies on each plate were counted. […] (“n” represents the number of replicates performed for each data point.)
Maron and Ames (1983) describe the conflicting views with regard to the statistical treatment of data generated from the test.

Cc1oc2c(C)c3oc(=O)cc(C)c3cc2c1CNCCCCN [Compound 6, 4′-(6-Aminohexyl-2-aza)-4,5′,8-trimethylpsoralen Dihydrochloride]
revertant colonies per plate (TA98 +S9, 10 μg/plate): −5
revertant colonies per plate (TA98 +S9, 250 μg/plate): 40
revertant colonies per plate (TA98 +S9, 500 μg/plate): 52
revertant colonies per plate (TA98 −S9, 10 μg/plate): 12
revertant colonies per plate (TA98 −S9, 50 μg/plate): 12
revertant colonies per plate (TA98 −S9, 100 μg/plate): 22
revertant colonies per plate (TA98 −S9, 250 μg/plate): 12
revertant colonies per plate (TA98 −S9, 500 μg/plate): 9
